Assay results as given in patent publication US8563036B2, “Pharmaceutical compositions comprising Brivaracetam” (UCB Pharma, S.A., priority 2009, dated 2013).
Converted amounts (≈) assume the structure as drawn.

Key:
rat hippocampal slices [1] = experiment: Epileptiform responses in hippocampal slices (field potentials in CA3 area); assay type: cell-based, Sprague-Dawley rats; set-up: effect on rate of spontaneous field bursting: dose or concentration left out as unconfirmed; conditions: for effect on rate of spontaneous field bursting: HKLCF; for effect on epileptiform responses (evoked PS1 amplitude, repetitive PSs): HKLCF perfusion (K+ 7.5 mM; Ca2+ 0.5 mM), fimbrial stimulation
Protocol: The effect of brivaracetam on epileptiform responses induced by high-K+/low-Ca2+ concentrations or by bicuculline was examined in transverse hippocampal slices prepared from Sprague-Dawley rats according to previously reported standard procedures. The epileptiform responses were induced by passing from a normal perfusion of artificial cerebrospinal fluid (ACSF) (K+3 mM; Ca2+2.4 mM) to either high-K+/low-Ca2+ fluid (HKLCF) (K+7.5 mM; Ca2+0.5 mM) or to […] bicuculline methiodide (BMI)-containing ACSF.
Extracellular field potentials (FPs) were recorded in the CA3 area of the slices with 2 M NaCl-filled glass microelectrodes. The evoked FPs were recorded at 10-min intervals in response to fimbrial stimulation with constant current rectangular pulses that elicit a single population spike (PS) of 50-75% of the maximal amplitude when the slice is in ACSF. In the HKLCF model, 2 min of spontaneous activity were also recorded, in the middle of each 10-min interval between the recordings of evoked responses.
Either brivaracetam or levetiracetam was added to the bathing fluid of the slices 20 min before shifting from ACSF to either HKLCF or […] BMI-containing ACSF, and was kept in the perfusion fluid throughout the experiment.

[2] = test system: fully amygdala-kindled rats; experiment: Fully amygdala-kindled rats; assay type: in vivo; conditions: for dose significantly reducing after-discharge duration: highest dose tested
[3] = test system: Genetically sound-sensitive male mice; experiment: Audiogenic seizures in mice; assay type: in vivo; conditions: audiogenic seizure-susceptible mice, i.p.
Description: Audiogenic seizures in mice: Genetically sound-sensitive male mice (16-28 g; n=10 per group), responding with wild running, clonic and tonic convulsions to an acoustic stimulation, were used. Audiogenic seizures were induced by an acoustic stimulus (90 dB, 10-20 kHz) applied for 30 s.

mice [4] = experiment: Chemically induced seizures in mice (pentylenetetrazol); assay type: in vivo; conditions: i.p. 30 min before seizure induction; higher ED50 values than audiogenic model
Protocol: The dose was selected based on dose-effect curves in saline-treated animals as the convulsive dose inducing clonic convulsions of all four extremities in 97% of the animals. Immediately after administration of the chemoconvulsant, the mice were placed individually in small plastic cages (25 13 8 cm) and observed for the presence of clonic convulsions in all four extremities, for 60 min. The occurrence of tonic convulsions (hindlimb extension) and mortality was also recorded during this interval.

mice [5] = experiment: Maximal electroshock in mice; assay type: in vivo; conditions: i.p. 30 min before seizure induction; higher ED50 values than audiogenic model
GAERS rats = experiment: Spontaneous SWDs in GAERS rats; assay type: in vivo
mice [6] = experiment: Corneal kindling of mice; assay type: in vivo
[7] = Water solubility of the active ingredient
rat hippocampal slices [8] = conditions: background statement; cited from earlier work

SMILES | BCS class (BCS classification) | effect on rate of spontaneous field bursting (rat hippocampal slices [1]) | effect on epileptiform responses (evoked PS1 amplitude, repetitive PSs) (rat hippocampal slices [1]) | dose from which significant suppression in motor-seizure severity was induced [2] | dose significantly reducing after-discharge duration [2] | protection against clonic convulsions [3] | protection against clonic convulsions induced by pentylenetetrazol (mice [4]) | protection against tonic hindlimb extension induced by maximal electroshock (mice [5]) | dose from which spontaneous SWDs were significantly suppressed (GAERS rats) | dose giving complete inhibition of spontaneous SWDs (GAERS rats; highest dose tested) | incidence of generalized motor seizures after termination of treatment (mice [6]; continued corneal stimulations, group previously treated with the highest dose) | incidence of generalized motor seizures (mice [6]; pretreatment during corneal kindling) | solubility [7] | effect on epileptiform responses induced by high-K+/low-Ca2+ and by bicuculline (rat hippocampal slices [8])
CCC[C@@H]1CC(=O)N([C@@H](CC)C(N)=O)C1 [Brivaracetam, (2S)-2-[(4R)-2-oxo-4-propyl-pyrrolidin-1-yl]butanamide] | BCS I | reduced the rate of this spontaneous bursting | reduced these epileptiform responses | 21.2 mg/kg | 212.3 mg/kg | protected against the expression of clonic convulsions | protected against clonic convulsions | protected | 2.1 mg/kg | 67.9 mg/kg | persistent reduction in the incidence of generalized motor seizures | significant reduction in the incidence of generalized motor seizures | ~700 mg/mL (≈ 3300 mM) | 
CC[C@@H](C(N)=O)N1CCCC1=O [Levetiracetam] |  | not | reduced these epileptiform responses | 170 mg/kg | > 1700 mg/kg | protected against the expression of clonic convulsions |  |  |  |  |  |  |  | reduces epileptiform responses
